Here are results for 11 compounds from patent publication EP4624472A1, “DEGRADER INCLUDING NOVEL C-MET PROTEIN LIGAND AND PHARMACEUTICAL COMPOSITION INCLUDING SAME” (Innocure Therapeutics, Inc., priority 2022, dated 2024).

Assay [1] has as its target T1, c-MET (Homo sapiens, UniProt P08581). As to the kind of experiment: c-MET protein degradation (Simple Western) in EBC-1 cells. Also on record: To evaluate the degradation efficacy of the compounds of the present invention for c-MET expressed in cells; endogenous in cells; host or cells: EBC-1 (human lung cancer cell line). The format is cell-based. To be noted: EBC-1, lung cancer cell line treated 48 hours; c-MET expression normalized to GAPDH, 0.1% DMSO = 100%; read-out: In vitro cell viability assay (nM) EBC-1 DC50. The method, then:
(§1) The c-MET overexpressing human gastric cancer cell lines MKN45 and SNU638 were cultured in RPMI medium with 10% fetal bovine serum, penicillin (100 U/ml), and streptomycin ([…]), and the c-MET exon 14 skipping mutant human gastric cancer cell line Hs746T was cultured in DMEM media. The c-MET overexpressing human lung cancer cell line EBC-1 was cultured in MEM media with the addition of 10% fetal bovine serum, penicillin (100U/ml), and streptomycin ([…]). The normal cell line WI-38 derived from human lung tissue was cultured in EMEM medium with the addition of 10% fetal bovine serum, penicillin (100U/ml), and streptomycin ([…]).
(§2) The compound synthesized in accordance with the present invention was prepared with a raw material solution of 10 mM dissolved in DMSO (dimethyl sulfoxide), and was sequentially diluted and processed.
(§3) To evaluate the degradation efficacy of the compounds of the present invention for c-MET expressed in cells, cells were dispensed in a 12-well plate at a concentration of 2 × 10^5 cells/well, and then gastric cancer cell lines were treated with samples for 24 hours and lung cancer cell lines were treated for 48 hours.
(§4) To perform a western blotting assay to confirm protein expression, cells treated with a compound treated with 40 µL of RIPA buffer with a protease inhibitor for 30 minutes, collected cell lysate using a scraper on ice, and centrifuged at 4°C 15,000 rpm for 30 min to obtain a protein-containing supernatant.
(§5) Protein expression was then measured using the Simple Western Automated Western Blot System Abby instrument using 3 µg of protein for each sample. SDS and heat-induced denaturation proteins were separated by molecular weight, attached to the capillary, reacted with anti-c-MET or anti-GAPDH antibodies, which are primary antibodies, and then reacted with HRP-conjugated secondary antibodies, and analyzed the protein expression signal with compass software.
(§6) Protein expression was normalized based on the expression value of GAPDH, and the protein expression amount in each sample was measured as a percentage (%) based on 100% of samples treated with 0.1% DMSO carrier, and DC50 (concentration of a compound where 50% protein inhibition is achieved) was calculated from the change in protein expression amount due to compound treatment.

In assay [2] the test system is SNU-638. As to the kind of experiment: In vitro cell viability assay (cancer cell anti-proliferative activity), SNU-638. Format: cell-based, human. The settings on record: Homo sapiens; SNU-638 cells, treated 72 hours; read-out: In vitro cell viability assay (nM) SNU-638 IC50. The procedure:
as §1, §2
(§7) In order to evaluate the inhibitory activity on cell growth, cells were dispensed in a 96-well plate at a concentration of 5,000 cells/well and then treated with the compound of the present invention prepared at various concentrations for 72 hours. The absorbance measurement at 450 nm was calculated using the GraphicPad Prism 8.0 software. The IC50 value (concentration of the compound achieving 50% cytostatic inhibition) is the average value of the measured results. […]

Assay [3] has as its system Hs746T. The assay is described as follows: In vitro cell viability assay (cancer cell anti-proliferative activity), Hs746T. The format is cell-based. The settings on record: Homo sapiens; Hs746T cells, treated 72 hours. The method, then: as §1, §2, §7
Assay [4] relates to EBC-1. The assay is described as follows: In vitro cell viability assay (cancer cell anti-proliferative activity), EBC-1. The settings on record: Homo sapiens; EBC-1 cells, treated 72 hours; read-out: In vitro cell viability assay (nM) EBC-1 IC50. The format is cell-based, human. The procedure:
as §1, §2, §7

In assay [5] the target is T1, c-MET. The assay is described as follows: c-MET protein degradation (Simple Western) in SNU-638 cells. Format: cell-based. Also on record: To evaluate the degradation efficacy of the compounds of the present invention for c-MET expressed in cells; endogenous in cells. To be noted: SNU-638, gastric cancer cell line treated 24 hours; c-MET expression normalized to GAPDH, 0.1% DMSO = 100%; read-out: In vitro cell viability assay (nM) SNU-638 DC50. The procedure:
as §1, §2, §3, §4, §5, §6

In assay [6] the target is T2, c-MET (Homo sapiens, UniProt P08581, DEL964-1010).
T2 construct: To evaluate the degradation efficacy of the compounds of the present invention for c-MET expressed in cells; endogenous in cells; host or cells: Hs746T (human gastric cancer cell line)
T2 sequence (P08581 with tags, fused parts or gaps DEL964-1010 limits assumed): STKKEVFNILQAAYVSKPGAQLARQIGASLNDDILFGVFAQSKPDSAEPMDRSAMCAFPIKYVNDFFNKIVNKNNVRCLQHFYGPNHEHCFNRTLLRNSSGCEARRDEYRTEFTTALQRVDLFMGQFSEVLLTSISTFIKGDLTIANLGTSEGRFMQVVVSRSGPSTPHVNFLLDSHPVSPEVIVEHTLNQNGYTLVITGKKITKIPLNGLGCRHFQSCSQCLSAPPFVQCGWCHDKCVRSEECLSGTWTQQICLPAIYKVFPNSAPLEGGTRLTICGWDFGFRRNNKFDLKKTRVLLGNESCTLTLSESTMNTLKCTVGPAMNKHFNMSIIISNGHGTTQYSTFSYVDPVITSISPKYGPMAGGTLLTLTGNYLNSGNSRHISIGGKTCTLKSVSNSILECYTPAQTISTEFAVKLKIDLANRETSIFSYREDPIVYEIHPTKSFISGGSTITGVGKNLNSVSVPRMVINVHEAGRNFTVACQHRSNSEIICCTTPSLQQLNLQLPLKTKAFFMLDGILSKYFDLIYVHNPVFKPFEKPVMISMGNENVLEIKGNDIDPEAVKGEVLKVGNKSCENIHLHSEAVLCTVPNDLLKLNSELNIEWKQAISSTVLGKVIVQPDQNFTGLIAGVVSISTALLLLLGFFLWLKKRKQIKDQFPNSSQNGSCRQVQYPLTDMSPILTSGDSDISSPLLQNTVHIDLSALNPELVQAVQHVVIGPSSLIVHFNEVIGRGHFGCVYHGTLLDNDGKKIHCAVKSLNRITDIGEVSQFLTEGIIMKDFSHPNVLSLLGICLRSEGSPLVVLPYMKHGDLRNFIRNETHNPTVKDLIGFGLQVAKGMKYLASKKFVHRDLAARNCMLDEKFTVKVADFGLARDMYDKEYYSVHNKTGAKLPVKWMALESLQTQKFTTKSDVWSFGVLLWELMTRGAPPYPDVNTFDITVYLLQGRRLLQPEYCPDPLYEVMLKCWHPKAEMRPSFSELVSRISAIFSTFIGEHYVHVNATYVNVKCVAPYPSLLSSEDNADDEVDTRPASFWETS
T2 sequence (P08581 25-307 partner limits assumed): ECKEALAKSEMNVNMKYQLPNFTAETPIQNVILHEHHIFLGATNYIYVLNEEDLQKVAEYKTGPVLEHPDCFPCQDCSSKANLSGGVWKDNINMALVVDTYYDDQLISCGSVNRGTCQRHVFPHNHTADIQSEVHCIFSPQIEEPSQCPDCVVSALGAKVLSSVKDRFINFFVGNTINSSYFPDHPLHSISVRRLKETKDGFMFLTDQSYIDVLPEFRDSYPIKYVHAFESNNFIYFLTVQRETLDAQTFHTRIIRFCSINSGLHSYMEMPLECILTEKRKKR
The assay is described as follows: c-MET protein degradation (Simple Western) in Hs746T cells. The format is cell-based. The settings on record: Hs746T (c-MET exon 14 skipping mutant), gastric cancer cell line treated 24 hours; c-MET expression normalized to GAPDH, 0.1% DMSO = 100%; read-out: In vitro cell viability assay (nM) Hs746T DC50. The method, then: as §1, §2, §3, §4, §5, §6

Molecules are shown by their SMILES.

T1 sequence (P08581 25-1390): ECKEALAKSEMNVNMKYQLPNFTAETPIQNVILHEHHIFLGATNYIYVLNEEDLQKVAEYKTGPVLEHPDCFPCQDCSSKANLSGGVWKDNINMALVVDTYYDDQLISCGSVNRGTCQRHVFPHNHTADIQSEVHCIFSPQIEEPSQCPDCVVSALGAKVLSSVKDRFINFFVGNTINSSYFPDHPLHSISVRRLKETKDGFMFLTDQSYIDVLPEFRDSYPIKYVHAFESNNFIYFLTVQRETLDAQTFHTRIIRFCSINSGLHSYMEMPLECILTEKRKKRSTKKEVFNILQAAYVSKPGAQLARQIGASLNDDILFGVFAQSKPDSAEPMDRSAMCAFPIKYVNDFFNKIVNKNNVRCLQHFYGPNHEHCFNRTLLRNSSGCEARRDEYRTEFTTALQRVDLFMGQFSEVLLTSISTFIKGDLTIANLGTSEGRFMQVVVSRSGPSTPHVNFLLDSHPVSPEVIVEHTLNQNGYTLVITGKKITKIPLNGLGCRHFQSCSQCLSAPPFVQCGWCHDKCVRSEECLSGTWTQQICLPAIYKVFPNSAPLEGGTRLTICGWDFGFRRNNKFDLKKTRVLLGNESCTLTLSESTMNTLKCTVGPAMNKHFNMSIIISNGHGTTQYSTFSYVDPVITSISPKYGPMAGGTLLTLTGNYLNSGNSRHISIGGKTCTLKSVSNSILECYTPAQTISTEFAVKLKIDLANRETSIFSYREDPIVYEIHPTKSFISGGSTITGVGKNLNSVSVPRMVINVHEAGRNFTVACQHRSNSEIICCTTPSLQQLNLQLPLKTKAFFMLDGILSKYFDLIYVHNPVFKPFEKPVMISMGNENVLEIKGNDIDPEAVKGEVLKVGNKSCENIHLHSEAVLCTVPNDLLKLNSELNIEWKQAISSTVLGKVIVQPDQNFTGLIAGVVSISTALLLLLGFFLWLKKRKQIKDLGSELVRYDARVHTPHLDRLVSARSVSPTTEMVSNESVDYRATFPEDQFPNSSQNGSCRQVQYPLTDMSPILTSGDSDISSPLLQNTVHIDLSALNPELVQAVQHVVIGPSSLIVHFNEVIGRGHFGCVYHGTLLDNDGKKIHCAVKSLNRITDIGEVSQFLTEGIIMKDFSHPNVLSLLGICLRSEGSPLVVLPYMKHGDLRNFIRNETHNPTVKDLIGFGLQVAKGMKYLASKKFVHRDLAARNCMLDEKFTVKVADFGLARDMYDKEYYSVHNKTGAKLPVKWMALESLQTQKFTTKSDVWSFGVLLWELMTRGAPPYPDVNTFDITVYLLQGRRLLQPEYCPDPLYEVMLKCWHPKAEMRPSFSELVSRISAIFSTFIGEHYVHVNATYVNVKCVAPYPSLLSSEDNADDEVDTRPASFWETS

As for `Cn1cc(-c2cnc3c(nnn3C[C@@H]3CN(c4ncc(N5CC(CN6CCN(c7ccc8c(=O)n(C9CCC(=O)NC9=O)ncc8c7)CC6)C5)cn4)CCO3)n2)cn1` (stereo partly drawn) [Example D-1, 3-(6-(4-((1-(2-((S)-2-((5-(1-methyl-1H-pyrazole-4-yl)-1H-[1,2,3]triazolo[4,5-b]pyrazine-1-yl)methyl)morpholine-5-il)azetidin-3-il)methyl)piperazine-1-il)piperazine-1-il)1-oxopthalazine-2(1H)-day)piperidine-2,6-dione], the DC50 (commonly the concentration giving 50% degradation) is not above 100 nM in assay [1], more than 1000 nM in assay [5] and not above 100 nM in assay [6]. Further, the IC50 in assay [2], in assay [3] and in assay [4] was not above 100 nM throughout.

Regarding `Cc1nn(C2CCC(=O)NC2=O)c(=O)c2ccc(N3CCN(CC4CCN(CC5CN(c6cnc(N7CCO[C@H](Cn8nnc9nc(-c%10cnn(C)c%10)cnc98)C7)nc6)C5)CC4)CC3)cc12` (stereo partly drawn) [Example D-4], the DC50 in assay [1] is not above 100 nM; in assay [5], not above 1000 nM; in assay [6], not above 100 nM. The IC50 in assay [2], in assay [3] and in assay [4] was not above 100 nM each time.

Regarding `Cn1cc(-c2cnc3c(nnn3C[C@@H]3CN(c4ncc(N5CC(CN6CCN(CC7CCN(c8ccc(NC9CCC(=O)NC9=O)cc8F)CC7)CC6)C5)cn4)CCO3)n2)cn1` (stereo partly drawn) [Example D-5], the DC50 in assay [1], in assay [5] and in assay [6] was more than 1000 nM throughout. Further, the IC50 (usually the concentration that gives 50% inhibition) is not above 100 nM in assay [2], more than 1000 nM in assay [3] and not above 100 nM in assay [4].

For the compound `Cc1nn(C2CCC(=O)NC2=O)c(=O)c2ccc(N3CCO[C@@H](COc4cnc(-c5cccc(Cn6nc(-c7cccc(C#N)c7)ccc6=O)c5)nc4)C3)cc12` (stereo partly shown) [Example E-1], the results for the DC50 in assay [1], in assay [5] and in assay [6] were not above 100 nM, more than 1000 nM and not above 100 nM, respectively. Moreover, the IC50 in assay [2], in assay [3] and in assay [4] was not above 100 nM throughout.

Turning to `N#Cc1cccc(-c2ccc(=O)n(Cc3cccc(-c4ncc(OC[C@H]5CN(c6ccc7c(=O)n(C8CCC(=O)NC8=O)ncc7c6)CCO5)cn4)c3)n2)c1` (stereo partly drawn) [Example E-2, 3-(1-(3-(5-(((2R)-4-(2-(2,6-dioxopiperidin-3-yl)-1-oxo-1,2-dihydrophthalazine-6-yl)morpholine-2-yl)methoxy)pyrimidin-2-yl)benzyl)6-oxo-1,6-dihydropyridazine-3-il)benzonitrile], the DC50 in assay [1] and in assay [6] was not above 100 nM in each case. Besides, the IC50 in assay [3] and in assay [4] was not above 100 nM throughout.

For `N#Cc1cccc(-c2ccc(=O)n(Cc3cccc(-c4ncc(OC[C@@H]5CN(c6ccc(NC7CCC(=O)NC7=O)cc6F)CCO5)cn4)c3)n2)c1` (stereo partly drawn) [Example E-3, 3-(1-(3-(5-(((2R)-4-(4-((2,6-dioxopiperidin-3-yl)amino)-2-fluorophenyl)morpholine-2-yl)methoxy)pyrimidine-2-yl)benzyl)6-oxo-1,6-dihydropyridazine-3-il)benzonitrile], the DC50 in assay [1] and in assay [5] was more than 1000 nM each time. Moreover, the IC50 in assay [2] and in assay [4] was not above 100 nM in each case.

Turning to `N#Cc1cccc(-c2ccc(=O)n(Cc3cccc(-c4ncc(OCCN5CCN(c6ccc7c(=O)n(C8CCC(=O)NC8=O)ncc7c6)CC5)cn4)c3)n2)c1` (stereo not shown) [Example E-4], the DC50 in assay [1] was not above 100 nM; in assay [5], more than 1000 nM; in assay [6] it was not above 100 nM. Also, the IC50 in assay [2], in assay [3] and in assay [4] was not above 100 nM each time.

For the compound `Cc1nn(C2CCC(=O)NC2=O)c(=O)c2ccc(N3CCN(CCOc4cnc(-c5cccc(Cn6nc(-c7cccc(C#N)c7)ccc6=O)c5)nc4)CC3)cc12` (stereo not shown) [Example E-5], the 50% degradation concentration (DC50) in assay [1], in assay [5] and in assay [6] was not above 100 nM throughout. For the same compound, the IC50 in assay [2], in assay [3] and in assay [4] was not above 100 nM throughout.

For `N#Cc1cccc(-c2ccc(=O)n(Cc3cccc(-c4ncc(OCCN5CCN(c6ccc(NC7CCC(=O)NC7=O)cc6F)CC5)cn4)c3)n2)c1` (stereo not shown) [Example E-6, 3-(1-(3-(5-(2-(4-(4-((2,6-dioxopiperidin-3-yl)amino)2-fluorophenyl)piperazine-1-yl)ethoxy)pyrimidine-2-yl)benzyl)6-oxo-1,6-dihydropyridazine-3-yl)benzonitrile], the DC50 in assay [1] and in assay [5] was more than 1000 nM in each case. Moreover, the IC50 in assay [2] and in assay [4] was not above 100 nM each time.

Take `N#Cc1cccc(-c2ccc(=O)n(Cc3cccc(-c4ncc(N5CCN(CC6CN(c7ccc(NC8CCC(=O)NC8=O)cc7F)C6)CC5)cn4)c3)n2)c1` (stereo not shown) [Example E-7]: the DC50 in assay [1] and in assay [5] was not above 100 nM each time. The IC50 in assay [2] and in assay [4] was not above 100 nM each time.

With `N#Cc1cccc(-c2ccc(=O)n(Cc3cccc(-c4ncc(N5CCN(CC6CCN(c7ccc(NC8CCC(=O)NC8=O)cc7F)CC6)CC5)cn4)c3)n2)c1` (stereo not shown) [Example E-8], the figures for the DC50 in assay [1], in assay [5] and in assay [6] were not above 100 nM, more than 1000 nM and not above 100 nM, respectively. Further, the IC50 in assay [2], in assay [3] and in assay [4] was not above 100 nM in each case.
